Test results taken from patent US20210214731A1, “METHODS FOR TREATING CANCER” (President and Fellows of Harvard College, priority 2019, published 2021).

What was measured:
MLL-AF9 AML [1] = experiment: In vitro growth of MLL-AF9 AML; assay type: cell-based, mouse; settings: for effect of inhibitor on in vitro growth of MLL-AF9 with MCT4-KO: combined with MCT4-KO versus control gRNA (FIG. 6D)
Description: Retroviral transduction model of MLL-AF9 or HoxA9-Meis1 AML were generated by infecting normal mouse GMP (Lin^−Kit^+Sca-1^−CD34^+CD16/32^+) (FASC antibodies summarized in Supplemental Table 4) by MSCV constructs. Infected cells were injected into normal C57BL/6J. Leukemic BM was harvested and expanded ex vivo in RPMI-1640 media supplemented with 10% FBS, 1% P/S, recombinant IL-3 (10 ng/ml) and SCF (100 ng/ml).

NOMO-1 = experiment: In vitro growth of NOMO-1; assay type: cell-based, human; settings: NOMO-1 (FIG. 10H)
Source text: (§1) Human AML cell lines (K562, KG1, ML2, Kasumi-1, MOLM-13, MOLM-14, MV4-11, THP-1, MONO-MACE, HL-60, NB4, U937 and NOMO-1) were purchased from the American Type Culture Collection (ATCC) and cultured in RPMI-1640 media supplemented with 10% FBS and 1% penicillin/streptomycin (P/S).

MCT4 expression in THP-1 = experiment: Q-PCR of MCT4 mRNA expression in THP-1; assay type: cell-based, human; settings: THP-1 (FIG. 10G)
Source text: as §1
(§2) Cell was washed twice with PBS and subjected to RNA purification using RNeasy Plus Mini Kit (Qiagen) according to the manufacturers' protocol. Extracted total RNA was then subjected to reverse transcription using SuperScript IV VILO Master Mix (Thermo Fisher Scientific) according to the manufacturers' protocol. Synthesized cDNA was then used for the Q-PCR using gene-specific primers (Supplemental Table 3) and SYBR™ Green PCR Master Mix. The reaction was run and analyzed by StepOnePlus Real-Time PCR System.

[2] = system: MCT4 promoter in MLL-AF9 AML; experiment: ChIP-PCR of enrichment on MCT4 promoter in MLL-AF9 AML; assay type: cell-based, mouse
Description: ChIP assays were performed in hematopoietic cells as previously described (Kim et al., 2008) using Pierce™ Protein G Agarose (Thermo Fisher Scientific). In brief, the cell suspension was fixed with 1% formaldehyde for 7 mins then neutralized by glycine. The fixed cell was washed with cold PBS. The cell pellet was then sonicated in SDS ChIP buffer. The supernatant was collected and pre-cleared with protein G agarose. After pre-clearing, a ChIP reaction using different antibodies (1:100, summarized in Supplemental Table 4) was added to the lysate and incubated at 4° C. overnight Immunoprecipitated complexes were successively washed with buffers and then eluted using SDS elution buffer at 65° C. overnight to reverse crosslink protein-DNA complex. The samples were treated with RNase A and Proteinase K, then extracted by phenol-chloroform isoamyl alcohol and precipitated. Finally, the pellet was resuspended in 20 μl TE buffer.
The DNA was then subjected to Q-PCR analysis using specific primers (Supplemental Table 3) and SYBR™ Green PCR Master Mix (Thermo Fisher Scientific). Input genomic DNA was used for the reference sample. The reaction was run and analyzed by StepOnePlus Real-Time PCR System (Thermo Fisher Scientific). Mouse or human Gfi1b was included as a negative control.

THP-1 = experiment: In vitro growth of THP-1; assay type: cell-based, human; settings: THP-1 (FIG. 10H)
Source text: as §1

[3] = system: MCT4 expression in NOMO-1; experiment: Q-PCR of MCT4 mRNA expression in NOMO-1; assay type: cell-based, human; settings: NOMO-1 (FIG. 10G)
Source text: as §1, §2

[4] = system: MCT4 expression in MLL-AF9 AML; experiment: MCT4 mRNA (Q-PCR) and protein (Western blot) expression in MLL-AF9 AML upon inhibitor treatment; assay type: cell-based, mouse; settings: MLL-AF9 AML in vitro (FIG. 9G)
Description: Cells were lyzed in 1×RIPA lysis buffer (Cell Signaling) with protease and phosphatase inhibitors. Cell lysate was centrifuged at 13000 rpm for 10 mins. Supernatant was collected and denatured in SDS-loading buffer with boiling for 10 mins. Cell lysates were separated, transferred and blotted with primary and horseradish peroxidase (HRP)-conjugated secondary antibodies (Supplemental Table 4). Hybridization signals were visualized with Amersham ECL Western blot detection reagents (GE Healthcare Amersham) or Luminata Forte Western HRP substrate (EMD Millipore) and captured by Hyperfilm™ ECL (GE Healthcare Amersham). Densitometric analysis of the bands was performed by ImageJ 1.8.0v.
as §2

MLL-AF9 AML [5] = experiment: Glycolysis and Mito stress analysis (Seahorse ECAR/OCR); assay type: cell-based, mouse; settings: MLL-AF9 AML in vitro, LDHA inhibition (FIG. 6A)
Description: Glycolysis stress and Mito stress of normal Lin^− BM cells and AML were examined by Seahorse XF analyzer (Agilent) according to the manufacturers' protocol. In brief, the suspension cells were seeded onto a Cell-Tak (Corning) coated Seahorse XF Microplate in Seahorse XF Base Medium with appropriate supplement (Glycolysis Stress test: 1 mM glutamine; Mito stress test: 1 mM pyruvate, 2 mM glutamine and 10 mM glucose) and centrifuged at 200×g for 5 mins Different compounds were injected for the ECAR and OCR profiling (Glycolysis Stress test: 10 mM glucose, 1 μM Oligomycin and 50 mM 2DG; Mito Stress test: 1 μM Oligomycin, 0.5 μM FCCP and 0.5 μM Antimycin A). The data was eventually analyzed by Seahorse Wave Desktop 2.6 (Agilent).

NC(=O)c1ccc(N)nc1 [6AN, 6-aminonicotinamide]
effect of inhibitor on in vitro growth of MLL-AF9 with MCT4-KO (MLL-AF9 AML [1]): increased the effect

Cc1sc2c(c1C)C(c1ccc(Cl)cc1)=N[C@@H](CC(=O)OC(C)(C)C)c1nnc(C)n1-2 [JQ-1]
growth (NOMO-1): suppressed | expression of MCT4 (MCT4 expression in THP-1): suppressed | BRD4 enrichment on the MCT4 promoter ([2]; mouse MLL-AF9 AML (FIG. 9I)): reduced | H3K27ac enrichment on the MCT4 promoter ([2]; mouse MLL-AF9 AML (FIG. 9J)): reduced | growth (THP-1): suppressed | expression of MCT4 [3]: suppressed | growth of MLL-AF9 AML (MLL-AF9 AML [1]; JQ-1 treatment (FIG. 9H)): reduced the growth of MLL-AF9 AML in dose dependent manner | MCT4 expression [4]: suppressed

CCCc1c(O)c(O)c(C(=O)O)c2cc(Cc3ccccc3)c(C)cc12 [FX11]
extracellular acidification rate (ECAR) (MLL-AF9 AML [5]): decreased | oxygen consumption rate (OCR) (MLL-AF9 AML [5]): increased

CC(C)N(C[C@H]1O[C@@H](n2cnc3c(N)ncnc32)[C@H](O)[C@@H]1O)[C@H]1C[C@@H](CCc2nc3cc(C(C)(C)C)ccc3[nH]2)C1 [EPZ-5676]
MCT4 expression [4]: not seen

O=CC[C@@H](O)[C@H](O)[C@H](O)CO [2DG, 2-deoxyglucose]
effect of inhibitor on in vitro growth of MLL-AF9 with MCT4-KO (MLL-AF9 AML [1]): increased the effect
